From PubChem BioAssay AID504882 (Broad Institute, 2011) come the findings set out here.

Each structure is given as a SMILES string. Results filed as inconclusive are left out. Active and inactive are the calls of the source. No rule for the calls is given here.

The subject of the assay is EBV lymphoblastoid cells (LCL) viability, plate reader. Kind of assay: LCL viability reduction – cell-based, plate reader, cherry-picks, set 2, cytotoxicity control, dose response (AID 504882).
For `CCCCC(=O)NC(c1ccc(OC)cc1)c1ccc2cccnc2c1O` (centres undefined), the AC50 (commonly the midpoint of the concentration-response curve, whichever way the signal moves) was 17.7 µM.

Consider `Cc1ccc(CSc2nc3ccncc3[nH]2)cc1`, for which the AC50 was 19.5 µM.

For `Cc1sc2ncnc(N/N=C/c3ccccc3O)c2c1C`, the AC50 was 3.59 µM.

In the case of `Cn1nnnc1N=N/C(=N/Nc1ccccc1)c1ccccc1`, the concentration at half-maximal activity (AC50) was 1.71 µM.

For `O=C(N/N=C/c1cc2c3c(c1O)CCCN3CCC2)c1ccccc1O`, the AC50 is 3.05 µM.

Consider `CCNc1ccc(Br)cc(C(=O)/C=C/c2c(Cl)cccc2Cl)c1=O`, for which the half-maximal activity concentration (AC50) was 13.8 µM.

For the compound `Cc1cc(C)nc(SCc2ccc(C(=O)N/N=C/c3cccc(O)c3O)cc2)n1`, the AC50 was 10.9 µM.

For the compound `CC(=NNc1nc2ccccc2o1)c1ncccn1`, the AC50 was 0.384 µM.

Consider `C(=N\Nc1nc2ccccc2[nH]1)/c1cccc2cccnc12`, for which the AC50 was 1.06 µM.

With `CCNC(=S)NNC(=O)c1cc(-c2ccc(OCC)cc2)nc2ccccc12`, the AC50 is 7.85 µM.

Regarding `CC(=NNC(=S)Nc1ccc(C)cc1)c1ccccn1`, the AC50 was 0.269 µM.

For the compound `O=c1c2c(nc3c(-c4cccc(Br)c4)c[nH]n13)CCCC2`, the AC50 is 11 µM.

For the compound `Cc1cc(S(=O)(=O)c2ccc(Cl)cc2)nc(S(=O)(=O)c2ccc(Cl)cc2)c1C#N`, the AC50 was 0.855 µM.

Regarding `COc1ccc2[nH]c(C(=O)N/N=C/c3ccc(O)cc3O)cc2c1`, the AC50 was 16 µM.

For `O=C(CCc1ccccc1)NC(c1cccs1)c1cc(Cl)c2cccnc2c1O` (centres undefined), the AC50 was 7.03 µM.

On to `O=[N+]([O-])c1c(Nc2cccc(O)c2)cc(Cl)c2nonc12`, for which the AC50 is 2.73 µM.

For the compound `CN(C)c1ccc(C=Cc2ccnc3c(O)cccc23)cc1`, the half-maximal activity concentration (AC50) was 10.5 µM.

Consider `Oc1ccc(C=NNc2ccccn2)c(O)c1`, for which the AC50 is 16.2 µM.

Regarding `Oc1ccc2ccccc2c1N=Nc1ccccn1`, the AC50 was 4.54 µM.

As to `COc1ccc(Cn2c(SCc3cc(C)ccc3C)nc3cc(OC)c(OC)cc3c2=N)cc1`, the AC50 was 6.5 µM.

Turning to `Nc1ccn([C@@H]2O[C@H](CO)[C@@H](O)C2O)c(=O)n1` (some centres undefined), the AC50 is 1.1 µM.

`Nc1ccc(C(=O)N/N=C\c2cc(N=Nc3cccc4ccccc34)ccc2O)cc1`: the AC50 was 10.7 µM.

Regarding `Clc1ccc(-n2nnnc2Sc2ncnc3sccc23)cc1`, the AC50 was 8.53 µM.

`CC1(C)N=C(N)N=C(N)N1c1ccc(CCCCc2ccccc2)cc1`: the AC50 was 0.991 µM.

In the case of `O=C(c1ccccc1)C(CCC(CN1CCOCC1)C(=O)c1ccccc1)CN1CCOCC1` (centres undefined), the AC50 is 7.73 µM.

Take `Cc1ccc(C(=O)N/N=C/c2c(O)ccc3ccccc23)cn1`: the AC50 is 17 µM.

Consider `CCCc1c(C(=O)N/N=C(\C)c2ccccn2)nnn1-c1nonc1N`, for which the AC50 is 1.57 µM.

Regarding `Cc1cc(=O)[nH]c(N=N/C(=N/Nc2ccccc2C)c2ccccc2)n1`, the AC50 is 8.28 µM.

Regarding `COc1ccc(O)c(/C=N/NC(=O)c2ccc(OCc3cccc(Br)c3)cc2)c1`, the AC50 was 4.03 µM.

As to `CCOc1cccc(/C=N/Nc2ccc(S(=O)(=O)N(CC)CC)cn2)c1O`, the AC50 is 1.79 µM.

In the case of `CC(=NNC(=S)N1CCN(c2ccccn2)CC1)c1nccs1`, the AC50 was 0.429 µM.

As for `CN=C1S/C(=C\c2ccc(O)c(Br)c2)C(=O)N1C`, the AC50 is > 19.5 µM (inactive).

Take `Oc1cccc(C(Nc2nccs2)c2ccc3cccnc3c2O)c1` (centres undefined): the AC50 was 11.4 µM.

Regarding `CCOC(=O)CC(NC(=O)C(Cc1ccc(N(CCCl)CCCl)cc1)NC(C)=O)C(=O)OCC` (centres undefined), the AC50 is 5.68 µM.

Turning to `O=C1C(=C(c2ccccc2)N2CCOCC2)Cc2ccccc21`, the AC50 was 5.38 µM.

In the case of `O=C(Nc1nc(-c2ccccn2)cs1)c1ccc(Cl)s1`, the AC50 is 1.34 µM.

In the case of `COc1ccccc1N(C(C)=O)C1=C(Cl)C(=O)c2ccccc2C1=O`, the AC50 is 2.59 µM.

For `S=C1SCN(Cc2ccco2)CN1Cc1ccco1`, the AC50 is 15.8 µM.

Turning to `Cc1csc(N=Nc2ccc(N(C)C)cc2)[n+]1[O-]`, the AC50 is 7.33 µM.

Take `O=C(CCl)N(c1ccc(Cl)cc1)c1c[nH]c2ccccc12`: the AC50 was 3.35 µM.

Turning to `CCCC(=O)NC(c1ccc(C(C)C)cc1)c1ccc2cccnc2c1O` (centres undefined), the AC50 was 1.74 µM.

For `CCCCCCc1cc2cc(-c3nnc(-c4ccccc4)o3)c(=O)oc2cc1O`, the AC50 is 9.34 µM.

Consider `Nc1ccn([C@@H]2O[C@H](CO)[C@@H](O)[C@@H]2O)c(=O)n1`, for which the half-maximal activity concentration (AC50) is 0.748 µM.

Regarding `CC(=O)NC(c1ccc2ccccc2c1)c1ccc2cccnc2c1O` (centres undefined), the AC50 is 1.93 µM.

For `Cc1[nH]n(-c2ccccc2)c(=O)c1/C=N/Nc1nncc(-c2ccccc2)n1`, the AC50 is 0.83 µM.

On to `COc1ccc(OCc2cccc(C(=O)NN)c2)cc1`, for which the AC50 is > 19.5 µM (inactive).

For `CCn1c2ccccc2c2cc(/C=N/NC(=O)c3ccccc3)ccc21`, the AC50 was 1.52 µM.

Consider `Cn1c(/C=C/c2ccccc2)nc2ccccc21`, for which the AC50 is 13.9 µM.

For the compound `CC(=NNc1nc2ccccc2s1)c1ncccn1`, the AC50 is 10.2 µM.

As for `Cc1cc(=O)[nH]c(NN=Cc2cc(Br)ccc2O)n1`, the AC50 is 3.92 µM.

Take `CCC(=O)NC(c1cc(Cl)c2cccnc2c1O)C1CC1` (centres undefined): the AC50 was 6.08 µM.

As to `COc1nc(Nc2nc3ccccc3c(=O)[nH]2)nc2ccc(C)cc12`, the AC50 is 2.23 µM.

As for `Cc1oc2c(c1C(=O)c1ccc(Cl)cc1)C(=O)C(=O)c1ccccc1-2`, the AC50 is 5.51 µM.

Regarding `O=C(NNC(=S)Nc1ccc(Cl)c(Cl)c1)c1ccccn1`, the AC50 was 1.5 µM.

As to `CC1=C(C(=O)OCc2ccc3c(c2)OCO3)C(c2ccc(Cl)cc2)NC(=O)N1` (centres undefined), the AC50 is 0.379 µM.

Regarding `Cc1cc(Sc2nnc(N)s2)c2ccccc2n1`, the AC50 is 16.8 µM.

Consider `CC(=O)NC(c1ccc(Cl)cc1Cl)c1ccc2cccnc2c1O` (centres undefined), for which the AC50 is 1.56 µM.

As to `Oc1c(C(Nc2nc3ccccc3s2)c2ccco2)ccc2cccnc12` (centres undefined), the AC50 is 2 µM.

As to `CCn1c2ccccc2c2cc(/C=N/n3cnnc3)ccc21`, the half-maximal activity concentration (AC50) is 10.7 µM.

For `c1ccc(-c2nc(-c3ccccn3)no2)cc1`, the AC50 is 9.22 µM.

As for `CCN(CC)c1ccc(/C=N/NC(=O)c2c(Cl)cnn2C)c(O)c1`, the AC50 was 3.19 µM.

With `CCCCC(=O)NC(c1cccc([N+](=O)[O-])c1)c1ccc2cccnc2c1O` (centres undefined), the AC50 is 5.14 µM.

As to `C#Cc1cc(N2CCN(C(=O)c3ccoc3)CC2)n2nc(-c3cccc(Cl)c3)cc2n1`, the AC50 was 10.4 µM.

In the case of `C/C(=N\NC(=O)c1cccc(Br)c1)c1ccccn1`, the AC50 is 0.803 µM.

For `COc1ccc(-c2[nH]ncc2-c2ccc3c(c2)OCCO3)c(O)c1`, the AC50 is > 19.5 µM (inactive).

With `C(=Cc1cnc2ccccc2n1)c1ccc2c(c1)OCO2`, the AC50 was 6.12 µM.

For `C=CCn1c(O)c(N=NC(=S)Nc2ccccc2F)c2ccccc21`, the AC50 is 10.2 µM.

On to `CCN(CC)c1ccc(/C=N/NC(=O)c2cnccn2)c(O)c1`, for which the AC50 is 3.23 µM.

As for `CCN(CC)S(=O)(=O)c1cc([N+](=O)[O-])ccc1NNC(=O)Nc1ccc(Cl)c(Cl)c1`, the AC50 was 20.2 µM.

Consider `Oc1ccc(C=NNC(=S)Nc2ccccc2)nc1`, for which the AC50 is 13 µM.

As for `Cc1cccc(-n2ncc(Cl)c(Cl)c2=O)c1`, the AC50 was 1.59 µM.

Turning to `CC(C)CC(=NNC(=O)c1ccncc1)c1cc(Cl)ccc1O`, the AC50 was 3.19 µM.

As to `O=Cc1ccc(-c2cccs2)s1`, the AC50 is 11.8 µM.

For the compound `C#CCN(C[C@@H]1[C@@H](OC(=O)NCCCCCC)[C@@H](OC(=O)NCCCCCC)Cn2c(=O)ccc(=O)n21)S(=O)(=O)c1ccc(C)cc1`, the AC50 was 3.98 µM.
